Reference: patent publication US5489575A, “Polypeptides and their use” (Boman; Hans G., priority 1991, dated 1996)
No end group written: not given here.

Assays:
Type in all cases: cell-based
[1] = tested on: Salmonella typhimurium L12; assay: Inhibition zone assay of PR-peptide on different bacteria; conditions: strain L12
Procedure: (§1) The antibacterial activity of the polypeptide of this invention was determined by inhibition zone assay as described by Hultmark et al. (Hultmark, D., Engstrom, A., Anderson, K., Steiner, H., Bennich, H. and Boman, H. G. (1983). Insect immunity. Attacins, a family of antibacterial proteins from Hyalophora cecropia. EMBO J. 2, 571-576).
(§2) Log-phase bacteria were grown to a density of 100 units on a Klett-summerson photoelectric colorimeter. They were diluted 50 times with LB medium and 50 μl of the bacteria suspension was mixed with 6 ml of 1.0% agarose in LB medium (w/v) and poured on the petri dishes (Falcon 1001 Optilux) with inner diameter 8.65 cm. For E. coli this procedure will give about 2×10^5 bacteria per plate.
(§3) The plates were left for 1 hour at room temperature, and holes with 3 mm diameter were made on the solidified agarose. 100 μl of fractions were dried in a speedvac and dissolved in 10 μl H2 O, of which 3 μl was applied to the holes. After 30 min diffusion time the plates were incubated at 30° C. overnight. The diameter of the inhibition zones were measured and the relative unit activity was calculated from a standard curve which was constructed on varying amount of Cecropin A versus activity. One microgram of Cecropin A corresponds to 1000 units of activity.
(§4) The maximum concentration of PR-peptide was 2,5 mM and 3 μl was applied to each well in thin agarose plates seeded with test bacterium. LV values are obtained from a dilution serie and is the lowest concentration giving killing (Muirmark, D., Engstrem, A., Anderson, K., Steiner, H., Bennich, H. and Boman, H. G. (1983))

[2] = tested on: Streptococcus pyrogenes; assay: as above
Procedure: as §1, §2, §3, §4

[3] = tested on: Proteus vulgaris Pv11; assay: as above; conditions: strain Pv11
Procedure: as §1, §2, §3, §4

[4] = tested on: Escherichia coli K12 D21; assay: as above; conditions: strain D21
Procedure: as §1, §2, §3, §4

[5] = tested on: Bacillus subtilis Bs11; assay: as above; conditions: strain Bs11
Procedure: as §1, §2, §3, §4

[6] = tested on: Bacillus megaterium Bm11; assay: as above; conditions: strain Bm11
Procedure: as §1, §2, §3, §4

[7] = tested on: Acinetobacter calcoaceticus Ac11; assay: as above; conditions: strain Ac11
Procedure: as §1, §2, §3, §4

[8] = tested on: Staphylococcus aureus Cowan 1; assay: as above; conditions: strain Cowan 1
Procedure: as §1, §2, §3, §4

[9] = tested on: Escherichia coli Bd2221/75; assay: as above; conditions: strain Bd2221/75
Procedure: as §1, §2, §3, §4

[10] = tested on: Pseudomones aeruginose OT97; assay: as above; conditions: strain OT97
Procedure: as §1, §2, §3, §4

[11] = tested on: Bacillus megaterium; assay: Inhibition zone assay repeated with Bacillus megaterium (Example 4); conditions: times higher than in relation to E. coli
Procedure: as §1, §2
as §3, with “of activity. […]” for “of activity.”

[12] = lowest concentration giving killing, from dilution series
[13] = maximum concentration 2,5 mM, 3 μl per well, thin agarose plates

Sequence: RRRPRPPYLPRPRPPPFFPPRLPPRIPPGFPPRFPPRFP [PR-peptide, bactericidal polypeptide isolated from pig small intestine]
- LC value [1, 12]: 1 µM
- Max zone [1, 13]: 15,2 mm
- LC value [2, 12]: 2 µM
- Max zone [2, 13]: 14,9 mm
- LC value [3, 12]: 300 µM
- Max zone [3, 13]: 3,5 mm
- LC value [4, 12]: 0,3 μM
- Max zone [4, 13]: 18,3 mm
- LC value [5, 12]: 15 µM
- Max zone [5, 13]: 10,3 mm
- LC value [6, 12]: 0,3 μM
- Max zone [6, 13]: 17,4 mm
- LC value [7, 12]: 3 µM
- Max zone [7, 13]: 12,5 mm
- LC value [8, 12]: 200 µM
- Max zone [8, 13]: 3,7 mm
- LC value [9, 12]: 0,3 μM
- Max zone [9, 13]: 17,6 mm
- LC value [10, 12]: 200 µM
- Max zone [10, 13]: 4,5 mm
- average activity against Bacillus megaterium relative to E. coli [11]: about 3 times
